Measured values from article doi:10.1101/2024.09.25.614871v2, “CLYBL averts methylmalonyl-CoA mutase inhibition and loss of vitamin B12 by repairing malyl-CoA” (biorxiv, 2024).
Each block holds one compound with its values, some of them ahead of it.

Key:
[1] = biological target: T1, SUCL (GDP-forming), SUCLG1:SUCLG2 complex (Homo sapiens, UniProt P53597+Q96I99); assay: PK/LDH-coupled NADH consumption; assay type: biochemical; settings: 0.6 mM GTP, 0.1 mM CoA, 7 mM MgCl2, pH 7.5, 30 °C
T1 construct: SUCLG1 aa 28-333 with N-terminal His6, SUCLG2 aa 38-420 with C-terminal His6, co-expressed in E. coli, tags kept
From the text: PK/LDH-coupled NADH consumption on SUCL (GDP-forming), SUCLG1:SUCLG2 complex

[2] = biological target: T2, SUCL (ADP-forming), SUCLG1:SUCLA2 complex (Homo sapiens, UniProt P53597+Q9P2R7); assay: PK/LDH-coupled NADH consumption; assay type: biochemical; settings: 0.6 mM ATP, 0.1 mM CoA, 7 mM MgCl2, pH 7.5, 30 °C
T2 construct: SUCLG1 aa 28-333 with N-terminal His6, SUCLA2 aa 53-463 with C-terminal His6, co-expressed in E. coli, tags kept
From the text: PK/LDH-coupled NADH consumption on SUCL (ADP-forming), SUCLG1:SUCLA2 complex

[3] = biological target: T3, CLYBL (Homo sapiens, UniProt Q8N0X4, I241V); assay: Ellman's reagent at […] nm (thioesterase); assay type: biochemical; settings: pH 7.5, 37 °C, 2 mM MgCl2
T3 construct: full-length ORF (340 aa precursor), natural variant Ile241Val, C-terminal Myc-DKK (FLAG) tag, expressed in HEK293FT, anti-FLAG purified
T3 sequence (Q8N0X4 23-340 I241V): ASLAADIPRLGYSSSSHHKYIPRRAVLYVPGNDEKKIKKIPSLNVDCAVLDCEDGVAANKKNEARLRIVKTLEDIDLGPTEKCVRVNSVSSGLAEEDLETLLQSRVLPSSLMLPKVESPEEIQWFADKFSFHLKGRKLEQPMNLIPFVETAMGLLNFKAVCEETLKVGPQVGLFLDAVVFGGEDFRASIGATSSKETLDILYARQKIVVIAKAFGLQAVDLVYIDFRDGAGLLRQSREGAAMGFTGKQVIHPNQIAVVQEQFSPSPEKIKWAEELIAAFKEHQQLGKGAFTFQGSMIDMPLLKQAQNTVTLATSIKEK

[4] = biological target: T4, methylmalonyl-CoA mutase (MCM) (Homo sapiens, UniProt P22033); assay: succinyl-CoA formation by LC-HRMS/MS; assay type: biochemical; settings: read-out: % residual activity at 50 μM
T4 construct: gene MMUT
T4 sequence (P22033 34-750): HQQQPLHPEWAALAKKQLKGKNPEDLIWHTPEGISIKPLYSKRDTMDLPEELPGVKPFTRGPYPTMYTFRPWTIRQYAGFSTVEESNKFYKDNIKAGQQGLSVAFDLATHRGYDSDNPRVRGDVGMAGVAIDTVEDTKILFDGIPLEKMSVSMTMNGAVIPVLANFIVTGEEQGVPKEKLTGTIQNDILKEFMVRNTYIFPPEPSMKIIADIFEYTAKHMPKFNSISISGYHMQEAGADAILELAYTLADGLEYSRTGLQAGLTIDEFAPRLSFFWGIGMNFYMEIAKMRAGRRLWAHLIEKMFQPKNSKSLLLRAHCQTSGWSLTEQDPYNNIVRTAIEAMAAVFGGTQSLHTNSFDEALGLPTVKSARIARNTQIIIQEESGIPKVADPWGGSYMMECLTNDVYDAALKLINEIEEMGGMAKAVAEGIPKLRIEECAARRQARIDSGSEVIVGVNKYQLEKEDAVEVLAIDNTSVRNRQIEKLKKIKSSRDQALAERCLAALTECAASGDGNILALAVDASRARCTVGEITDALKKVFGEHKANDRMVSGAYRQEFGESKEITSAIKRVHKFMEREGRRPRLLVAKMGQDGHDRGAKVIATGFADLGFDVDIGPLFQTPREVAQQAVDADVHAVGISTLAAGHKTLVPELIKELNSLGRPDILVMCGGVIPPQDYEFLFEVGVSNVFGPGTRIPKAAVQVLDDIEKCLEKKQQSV

[5] = biological target: T5, citrate synthase (CS) (Sus scrofa, UniProt P00889); assay: Ellman's reagent at […] nm, inhibition of malyl-CoA thioesterase; assay type: biochemical; settings: read-out: % inhibition at highest concentration (100 μM)
T5 construct: commercial native enzyme from porcine heart
T5 sequence (P00889 28-464): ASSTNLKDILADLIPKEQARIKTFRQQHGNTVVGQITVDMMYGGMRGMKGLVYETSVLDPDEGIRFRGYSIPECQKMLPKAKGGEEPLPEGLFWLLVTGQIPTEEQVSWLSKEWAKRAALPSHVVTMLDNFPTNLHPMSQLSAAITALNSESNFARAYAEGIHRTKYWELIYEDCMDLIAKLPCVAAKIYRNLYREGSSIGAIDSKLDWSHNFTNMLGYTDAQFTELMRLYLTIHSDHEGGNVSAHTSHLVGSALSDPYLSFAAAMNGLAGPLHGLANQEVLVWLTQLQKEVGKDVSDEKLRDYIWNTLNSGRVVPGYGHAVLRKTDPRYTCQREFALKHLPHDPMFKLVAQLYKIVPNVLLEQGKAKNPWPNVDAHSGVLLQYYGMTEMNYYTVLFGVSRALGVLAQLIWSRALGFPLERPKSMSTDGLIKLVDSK

[6] = biological target: T4, methylmalonyl-CoA mutase (MCM); assay: absorbance spectrum of loaded enzyme; assay type: binding; settings: 12.5 μM MCM homodimer, 5 μM adenosylcobalamin, pH 7.5, 30 °C
[7] = biological target: T4, methylmalonyl-CoA mutase (MCM); assay: succinyl-CoA formation by LC-HRMS/MS; assay type: biochemical; settings: 10 min preincubation, 0.24 μM adenosylcobalamin, 65 μM methylmalonyl-CoA, pH 7.5, 30 °C; coenzyme inactivation to cob(II)alamin; itaconyl-CoA 27% pure, concentrations corrected

T1 sequence (P53597 28-333): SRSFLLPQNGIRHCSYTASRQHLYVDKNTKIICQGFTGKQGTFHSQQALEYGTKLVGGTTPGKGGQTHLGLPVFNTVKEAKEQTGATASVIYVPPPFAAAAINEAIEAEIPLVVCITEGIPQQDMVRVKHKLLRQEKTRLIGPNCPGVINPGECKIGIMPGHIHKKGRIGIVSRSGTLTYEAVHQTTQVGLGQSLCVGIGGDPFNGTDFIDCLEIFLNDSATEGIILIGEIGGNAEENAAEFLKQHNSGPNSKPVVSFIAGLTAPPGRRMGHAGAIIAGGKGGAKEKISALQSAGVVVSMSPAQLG
T1 sequence (Q96I99 38-420): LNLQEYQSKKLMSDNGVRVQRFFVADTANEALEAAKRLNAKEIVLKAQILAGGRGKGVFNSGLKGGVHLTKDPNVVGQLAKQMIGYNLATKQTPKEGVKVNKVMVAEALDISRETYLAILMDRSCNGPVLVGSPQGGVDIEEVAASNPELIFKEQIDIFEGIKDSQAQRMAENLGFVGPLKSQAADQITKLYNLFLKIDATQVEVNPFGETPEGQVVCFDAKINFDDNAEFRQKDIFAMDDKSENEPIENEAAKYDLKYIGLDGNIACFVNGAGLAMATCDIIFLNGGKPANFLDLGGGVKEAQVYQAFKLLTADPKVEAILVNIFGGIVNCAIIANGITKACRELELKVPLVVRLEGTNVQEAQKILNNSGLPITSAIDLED
T2 sequence (P53597 28-333): as the sequence (P53597 28-333) above
T2 sequence (Q9P2R7 53-463): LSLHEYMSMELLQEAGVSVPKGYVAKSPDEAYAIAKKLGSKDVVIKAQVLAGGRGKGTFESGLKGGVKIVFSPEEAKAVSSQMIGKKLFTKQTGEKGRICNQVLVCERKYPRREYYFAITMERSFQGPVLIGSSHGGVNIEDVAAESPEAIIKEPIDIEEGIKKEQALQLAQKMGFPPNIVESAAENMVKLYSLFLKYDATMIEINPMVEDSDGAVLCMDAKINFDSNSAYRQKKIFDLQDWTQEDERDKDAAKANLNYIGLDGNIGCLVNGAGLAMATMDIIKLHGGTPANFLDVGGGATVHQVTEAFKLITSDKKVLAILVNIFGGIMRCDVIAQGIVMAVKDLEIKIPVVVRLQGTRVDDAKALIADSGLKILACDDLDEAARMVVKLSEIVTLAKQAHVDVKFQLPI

Structure (SMILES): O=C(O)CCC(=O)O [succinate]
Km [1]: 0.25 ± 0.03 mM
Km [2]: 6.3 ± 1.9 mM

Structure (SMILES): C/C1=C2/[N-][C@H]([C@H](CC(N)=O)[C@@]2(C)CCC(=O)NC[C@@H](C)OP(=O)([O-])O[C@H]2C(O)[C@@H](n3cnc4cc(C)c(C)cc43)O[C@@H]2CO)[C@]2(C)N=C(/C(C)=C3N=C(/C=C4N=C1[C@@H](CCC(N)=O)C\4(C)C)[C@@H](CCC(N)=O)[C@]\3(C)CC(N)=O)[C@@H](CCC(N)=O)[C@]2(C)CC(N)=O.[CH2-][C@H]1O[C@@H](n2cnc3c(N)ncnc32)[C@H](O)[C@@H]1O.[Co+3] (stereo partly shown) [AdoCbl, adenosylcobalamin]
absorbance spectrum of loaded enzyme [6]: conversion of the MCM-bound adenosylcobalamin into cob(II)alamin

Structure (SMILES): C=C(CC(=O)SCCNC(=O)CCNC(=O)[C@H](O)C(C)(C)COP(=O)(O)OP(=O)(O)OC[C@H]1O[C@@H](n2cnc3c(N)ncnc32)[C@H](O)[C@@H]1OP(=O)(O)O)C(=O)O [itaconyl-CoA]
relative activity [7]: Both acyl-CoAs induced a dose-dependent inhibition of MCM (Fig. 5a)

Further lines, with some results ahead:

remaining activity at 50 µM [4]: < 10%
Structure (SMILES): CC(C)(COP(=O)(O)OP(=O)(O)OC[C@H]1O[C@@H](n2cnc3c(N)ncnc32)[C@H](O)[C@@H]1OP(=O)(O)O)[C@@H](O)C(=O)NCCC(=O)NCCSC(=O)C[C@H](O)C(=O)O [malyl-CoA]
KM [3]: CLYBL actively hydrolyzed malyl-CoA into malate and free CoASH

inhibition at 100 µM [5]: ~30%
Structure (SMILES): CC(=O)SCCNC(=O)CCNC(=O)[C@H](O)C(C)(C)COP(=O)(O)OP(=O)(O)OC[C@H]1O[C@@H](n2cnc3c(N)ncnc32)[C@H](O)[C@@H]1OP(=O)(O)O [ACoA, acetyl-CoA]
